In US12503482B2, “Compositions and methods for trehalose phospholipids” (The Brigham and Women's Hospital, Inc., priority 2019, dated 2025):
Positions count from the first letter of the chain named. Where two headings read alike, the source gives them in different places.

What was measured:
Type in all cases: cell-based
murine Mincle = target: T1, murine Mincle (Mus musculus, UniProt Q9R0Q8); test: Mincle activation assay, murine Mincle-FcRγ GFP reporter cell line with plate-coated lipids
T1 construct: expressed in transfected cells; host or cells: 2B4-NFAT-GFP cells
T1 sequence (Q9R0Q8 1-214): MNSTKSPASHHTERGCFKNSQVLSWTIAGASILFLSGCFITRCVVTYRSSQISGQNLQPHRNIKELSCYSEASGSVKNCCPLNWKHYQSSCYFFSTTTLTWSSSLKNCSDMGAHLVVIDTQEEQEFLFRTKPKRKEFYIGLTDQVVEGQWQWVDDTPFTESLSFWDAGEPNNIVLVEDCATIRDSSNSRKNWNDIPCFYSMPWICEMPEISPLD
T1 sequence (P20491 19-86 partner): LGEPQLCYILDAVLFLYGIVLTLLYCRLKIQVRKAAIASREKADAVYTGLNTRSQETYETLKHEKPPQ

human Mincle = target: T2, human Mincle (Homo sapiens, UniProt Q9ULY5); test: Mincle activation assay, human Mincle-FcRγ GFP reporter cell line with plate-coated lipids; conditions: FIG. 3D
T2 construct: expressed in transfected cells; host or cells: 2B4-NFAT-GFP cells
T2 sequence (Q9ULY5 1-219): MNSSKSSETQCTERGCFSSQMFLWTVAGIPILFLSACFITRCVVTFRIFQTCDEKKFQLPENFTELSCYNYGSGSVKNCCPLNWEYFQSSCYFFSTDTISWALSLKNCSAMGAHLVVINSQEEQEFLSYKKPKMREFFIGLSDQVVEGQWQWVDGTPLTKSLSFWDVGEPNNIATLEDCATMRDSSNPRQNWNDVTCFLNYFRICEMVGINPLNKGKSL
T2 sequence (P30273 19-86 partner): T1 sequence (P20491 19-86 partner) with V13I, A38T, R40Y, A43S, A45G, N51S, S54N

FcRγ = test: Negative control reporter cell line expressing FcRγ only; conditions: FIG. 3D

relative sensitivity of murine Mincle to diPT versus TDM (murine Mincle; FIG. 3D)	activation of murine Mincle reporter cell line (murine Mincle; comparison of murine and human reporter lines, FIG. 3D)	amount of coated lipid at which reporter cells respond (GFP expression) (murine Mincle; murine Mincle-FcRγ reporter cell line, plate-coated lipid, FIG. 3C) [ng]	activation of human Mincle reporter cell line (human Mincle; comparison of murine and human reporter lines)	Compound	amount of coated lipid at which reporter cells respond (GFP expression) (murine Mincle) [ng]	relative sensitivity of human Mincle to diPT versus TDM (human Mincle)	activation of negative control cell line expressing FcRγ only (FcRγ)
–	–	–	–	trehalose dimycolate [TDM, reference compound]	5	–	–
the opposite is true	activation present at nanogram levels	20	activation present at nanogram levels	CCCCCCCCCCCCCCCC(=O)OC[C@H](COP(=O)(O)OCC1OC(OC2OC(COP(=O)(O)OC[C@@H](COC(=O)CCCCCCCCCCCCCCC)OC(=O)CCCCCCC[C@H]3C[C@H]3CCCCCC)C(O)C(O)C2O)C(O)C(O)C1O)OC(=O)CCCCCCC[C@H]1C[C@H]1CCCCCC (some centres unmarked) [synthetic diPT, 6,6′-diphosphatidyltrehalose]	–	marginally more sensitive to diPT than to TDM	failed to activate
–	–	–	–	6,6′-diphosphatidyltrehalose [natural diPT]	5	–	–
